Test results as given in patent publication US20240132525A1, “BORON […], CO[…], METHODS AND USES THEREOF” (priority 2022, published 2024).
Where two headings read alike, the source gives them in different places.

Experiments:
PDE4B = PDE4B (Homo sapiens (Human), UniProt Q07343); assay: PDE4B inhibition; assay type: biochemical
[1] = Dog LM (liver microsome) assay; assay type: in vitro ADME; conditions: predicted clearance as percent of liver blood flow
Description: Dog LM (Liver Microsome) Assay
The metabolic degradation of the test compound is assayed at 37° C. with pooled liver microsomes from dogs (Beagle). The final incubation volume of 100 μl per time point contains TRIS buffer pH 7.6 at RT (0.1 M), magnesium chloride (5 mM), microsomal protein (1 mg/ml) and the test compound at a final concentration of 1 μM. Following a short preincubation period at 37° C., the reactions were initiated by addition of beta-nicotinamide adenine dinucleotide phosphate, reduced form (NADPH, 1 mM) and terminated by transferring an aliquot into solvent after different time points. Additionally, the NADPH-independent degradation was monitored in incubations without NADPH, terminated at the last time point. The [%] remaining test compound after NADPH independent incubation is reflected by the parameter c (control) (metabolic stability). The quenched incubations are pelleted by centrifugation (10000 g, 5 min). An aliquot of the supernatant is assayed by LC-MS/MS for the amount of parent compound. The half-life (t½ INVITRO) is determined by the slope of the semilogarithmic plot of the concentration-time profile. The intrinsic clearance (CL_[…]) is calculated by considering the amount of protein in the incubation: CL_[…] [μl/min/mg protein]=(Ln 2/(half-life [min]*protein content [mg/ml]))*1000. For better across species comparison the predicted clearance is expressed as percent of the liver blood flow [% QH] in the individual species. In general, high stability (corresponding to low % QH) of the compounds across species is desired.

JAK1 = JAK1 (Homo sapiens (Human), UniProt P23458); assay: Biochemical kinase assay (33P-ATP filter-binding), JAK1; conditions: read-out: IC50 JAK1
Chain of JAK1 (P23458 whole entry, species assumed): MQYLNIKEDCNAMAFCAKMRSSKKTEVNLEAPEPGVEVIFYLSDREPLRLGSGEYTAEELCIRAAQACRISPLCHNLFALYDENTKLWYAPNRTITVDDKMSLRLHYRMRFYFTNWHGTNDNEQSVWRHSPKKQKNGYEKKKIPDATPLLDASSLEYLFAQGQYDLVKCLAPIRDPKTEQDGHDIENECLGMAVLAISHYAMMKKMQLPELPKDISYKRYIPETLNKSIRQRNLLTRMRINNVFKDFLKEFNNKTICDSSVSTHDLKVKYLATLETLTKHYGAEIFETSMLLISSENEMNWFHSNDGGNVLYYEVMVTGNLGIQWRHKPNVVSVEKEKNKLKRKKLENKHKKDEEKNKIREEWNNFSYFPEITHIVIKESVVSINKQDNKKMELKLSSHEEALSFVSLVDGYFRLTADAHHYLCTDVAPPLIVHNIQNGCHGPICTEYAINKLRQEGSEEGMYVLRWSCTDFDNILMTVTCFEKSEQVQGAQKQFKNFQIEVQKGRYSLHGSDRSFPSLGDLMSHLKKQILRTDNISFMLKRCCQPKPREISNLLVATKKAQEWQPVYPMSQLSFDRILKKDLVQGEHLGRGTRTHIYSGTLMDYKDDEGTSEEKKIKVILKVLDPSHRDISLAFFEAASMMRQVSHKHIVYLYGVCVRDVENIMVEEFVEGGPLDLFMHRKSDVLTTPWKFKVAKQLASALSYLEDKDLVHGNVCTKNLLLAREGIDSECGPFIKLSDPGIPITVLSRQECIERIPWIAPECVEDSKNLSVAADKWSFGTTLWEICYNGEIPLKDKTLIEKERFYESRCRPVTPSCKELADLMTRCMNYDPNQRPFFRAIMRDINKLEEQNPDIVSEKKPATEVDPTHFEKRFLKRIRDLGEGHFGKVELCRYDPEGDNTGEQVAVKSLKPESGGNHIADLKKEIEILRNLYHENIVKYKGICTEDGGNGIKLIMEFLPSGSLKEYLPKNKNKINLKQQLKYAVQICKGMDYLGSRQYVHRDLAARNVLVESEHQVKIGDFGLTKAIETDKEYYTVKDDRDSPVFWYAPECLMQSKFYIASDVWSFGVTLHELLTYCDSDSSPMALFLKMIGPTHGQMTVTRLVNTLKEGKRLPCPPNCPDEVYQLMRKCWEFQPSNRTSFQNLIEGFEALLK
Description: (§1) Biochemical Kinase Assay Protocol (JAK)
(§2) Reaction Procedure: • 1. […] Detected kinase activity by filter-binding method.

JAK2 = JAK2 (Homo sapiens (Human), UniProt O60674); assay: Biochemical kinase assay (33P-ATP filter-binding), JAK2; conditions: read-out: IC50 JAK2
Chain of JAK2 (O60674 whole entry, species assumed): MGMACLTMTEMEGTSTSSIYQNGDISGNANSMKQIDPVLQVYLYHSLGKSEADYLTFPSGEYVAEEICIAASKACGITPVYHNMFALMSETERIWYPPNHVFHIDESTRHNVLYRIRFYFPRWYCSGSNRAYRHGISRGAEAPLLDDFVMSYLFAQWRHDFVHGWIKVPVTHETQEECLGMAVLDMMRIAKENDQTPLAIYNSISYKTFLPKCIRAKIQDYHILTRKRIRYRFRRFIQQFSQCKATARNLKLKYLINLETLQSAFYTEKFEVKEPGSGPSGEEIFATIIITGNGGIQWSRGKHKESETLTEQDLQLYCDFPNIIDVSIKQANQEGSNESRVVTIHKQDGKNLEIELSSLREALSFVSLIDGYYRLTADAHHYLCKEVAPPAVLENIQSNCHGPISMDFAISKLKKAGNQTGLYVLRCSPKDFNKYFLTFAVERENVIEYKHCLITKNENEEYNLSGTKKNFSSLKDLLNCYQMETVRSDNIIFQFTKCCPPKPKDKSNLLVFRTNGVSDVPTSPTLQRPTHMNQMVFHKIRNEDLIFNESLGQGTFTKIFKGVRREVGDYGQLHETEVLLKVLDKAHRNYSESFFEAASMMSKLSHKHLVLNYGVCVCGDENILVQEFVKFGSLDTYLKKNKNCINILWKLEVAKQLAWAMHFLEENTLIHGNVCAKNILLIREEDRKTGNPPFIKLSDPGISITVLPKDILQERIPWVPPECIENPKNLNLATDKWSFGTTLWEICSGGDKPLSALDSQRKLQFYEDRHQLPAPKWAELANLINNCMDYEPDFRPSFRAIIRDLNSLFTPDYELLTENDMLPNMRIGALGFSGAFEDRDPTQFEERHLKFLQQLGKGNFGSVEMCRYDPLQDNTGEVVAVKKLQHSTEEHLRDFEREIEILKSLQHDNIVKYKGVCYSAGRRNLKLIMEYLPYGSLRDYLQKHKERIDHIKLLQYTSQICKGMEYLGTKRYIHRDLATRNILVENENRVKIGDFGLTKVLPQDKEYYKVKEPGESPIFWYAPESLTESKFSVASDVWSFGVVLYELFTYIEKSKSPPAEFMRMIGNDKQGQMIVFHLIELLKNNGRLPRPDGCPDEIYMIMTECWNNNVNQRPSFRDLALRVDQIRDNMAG
Description: as §1, §2

IL-4/pSTAT6 = assay: Cytokine function assay IL-4/pSTAT6 in PBMC; assay type: cell-based
Description: (§3) Cytokine Function Assay Protocols for IL-4/pSTAT6 and GM-CSF/pSTAT5
IL-4/pSTAT6: • PBMC from a healthy donor was plated onto a 96 w plate. Compound was added and incubated for 1 hour (at 37° C.). After 1 hour, cells were stimulated with IL-4 for 15 minutes. Cells were fixed and stained with anti-pSTAT6 antibody. After staining, cells were read on a Beckman-Coulter CytoFLEX.

GM-CSF/pSTAT5 = assay: Cytokine function assay GM-CSF/pSTAT5 in lysed whole blood cells; assay type: cell-based; conditions: Table 3b, comparator compounds; read-out: IC50 GM-CSF
Description: as §3
GM-CSF/pSTAT5: • Whole blood from a healthy donor was lysed to remove red blood cells. Cells were plated onto a 96 well plate. Compound was added and incubated for 1 hour (at 37° C.). After 1 hour, cells were stimulated with GM-CSF for 15 minutes. Cells were fixed and stained with anti-pSTAT5 antibody. After staining, cells were read on a Beckman-Coulter CytoFLEX.

[2] = Table 3a, 1 μM, 1 mg/ml microsomal protein
[3] = PBMC, read-out: IC50 IL-4, Table 3a
[4] = Table 3b, comparator compounds, read-out: IC50 IL-4

Chain of PDE4B (Q07343 whole entry, species assumed): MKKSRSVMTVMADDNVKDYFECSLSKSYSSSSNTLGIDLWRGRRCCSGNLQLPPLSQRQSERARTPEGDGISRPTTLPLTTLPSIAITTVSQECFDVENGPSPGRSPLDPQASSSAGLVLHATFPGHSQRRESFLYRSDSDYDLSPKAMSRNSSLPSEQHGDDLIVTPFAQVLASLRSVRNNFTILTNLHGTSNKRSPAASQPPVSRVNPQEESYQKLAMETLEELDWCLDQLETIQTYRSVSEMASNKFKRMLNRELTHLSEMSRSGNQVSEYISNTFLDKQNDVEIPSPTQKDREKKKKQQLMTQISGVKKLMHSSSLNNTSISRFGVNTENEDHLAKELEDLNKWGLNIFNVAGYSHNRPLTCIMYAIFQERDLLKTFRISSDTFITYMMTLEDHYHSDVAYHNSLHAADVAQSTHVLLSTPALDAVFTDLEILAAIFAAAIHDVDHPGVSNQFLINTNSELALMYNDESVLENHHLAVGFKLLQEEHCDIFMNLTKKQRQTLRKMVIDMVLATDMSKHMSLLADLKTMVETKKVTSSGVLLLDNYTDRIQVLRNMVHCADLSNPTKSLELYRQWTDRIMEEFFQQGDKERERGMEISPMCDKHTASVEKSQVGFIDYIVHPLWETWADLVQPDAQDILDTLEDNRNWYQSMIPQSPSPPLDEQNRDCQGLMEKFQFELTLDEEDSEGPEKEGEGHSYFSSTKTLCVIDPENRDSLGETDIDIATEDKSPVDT

SMILES | IC50 (PDE4B; Table 3a) [nM] | Dog LM QH [1, 2] [%] | IC50 (JAK1; Table 3a) [nM] | IC50 (JAK2; Table 3a) [nM] | IC50 (IL-4/pSTAT6; [3]) [nM] | Dog LM QH ([1]; Table 3b, comparator compounds) [%] | IC50 (JAK1; Table 3b, comparator compounds) [nM] | IC50 (GM-CSF/pSTAT5) [nM] | IC50 (IL-4/pSTAT6; [4]) [nM] | IC50 (JAK2; Table 3b, comparator compounds) [nM] | IC50 (PDE4B; Table 3b, comparator compounds) [nM] | Inhibition PDE4B @ 1 μM (PDE4B; Table 3b, comparator compounds) [%]
N#C[C@@H]1CCC[C@H]1Nc1nc(Nc2ccc3c(c2)COB3O)ncc1Cl (relative stereo) [Example 005, (trans)-2-[[5-chloro-2-[(1-hydroxy-3H-2,1-benzoxaborol-5-yl)amino]pyrimidin-4-yl]amino]cyclopentane-1-carbonitrile] | 44.5 | <19.9 | 0.5 | 9 |  |  |  |  |  |  |  | 
Cc1cnc(Nc2ccc3c(c2)C=CB(O)O3)nc1N[C@@H]1COCC[C@H]1C#N (relative stereo) [Example 035, (trans)-3-[[2-[(2-hydroxy-1,2-benzoxaborinin-6-yl)amino]-5-methyl-pyrimidin-4-yl]amino]tetrahydropyran-4-carbonitrile] | 320 | 43.7 | 0.7 | 8.8 |  |  |  |  |  |  |  | 
Cc1cnc(Nc2cc(F)c3c(c2)C=CB(O)O3)nc1N[C@@H]1COCC[C@H]1C#N (single isomer, unassigned) [Example 036a, (trans)-3-((2-((8-fluoro-2-hydroxy-2H-benzo[e][1,2]oxaborinin-6-yl)amino)-5-methylpyrimidin-4-yl)amino)tetrahydro-2H-pyran-4-carbonitrile] |  | 33.1 | 0.3 | 4.8 | 158 |  |  |  |  |  |  | 
Cc1cnc(Nc2ccc3c(c2)C(C(C)C)=CB(O)O3)nc1N[C@H]1COCC[C@@H]1C#N (single isomer, unassigned) [Example 039a, (trans)-3-((2-((2-hydroxy-4-isopropyl-2H-benzo[e][1,2]oxaborinin-6-yl)amino)-5-methylpyrimidin-4-yl)amino)tetrahydro-2H-pyran-4-carbonitrile] |  | 78.4 | 1.1 | 18.9 | 265 |  |  |  |  |  |  | 
Cc1cnc(Nc2cc(Cl)c3c(c2)C(C(C)C)=CB(O)O3)nc1N[C@H]1COCC[C@@H]1C#N (single isomer, unassigned) [Example 040b, (trans)-3-((2-((8-chloro-2-hydroxy-4-isopropyl-2H-benzo[e][1,2]oxaborinin-6-yl)amino)-5-methylpyrimidin-4-yl)amino)tetrahydro-2H-pyran-4-carbonitrile] |  | 47.4 | 1.1 | 16.7 | 1410 |  |  |  |  |  |  | 
CCC(CC)Nc1nc(Nc2cc(Cl)c3c(c2)COB3O)ncc1C [Example C002] |  |  |  |  |  | <19.9 | 1.1 | 10000 | 155 | 95.7 |  | 
OB1OCc2cc(Nc3nccc(NC4CCCCC4)n3)ccc21 [Example C010] |  |  |  |  |  |  | 48 |  |  | 364 | 956 | 53
Cc1cnc(Nc2cc(Cl)c3c(c2)COB3O)nc1NC1CCCCC1 [Example C012] |  |  |  |  |  | <19.9 | 0.1 | 1780 | 224 | 6.5 |  | 
OB1OCc2cc(Nc3ncc(Cl)c(NC4CCCC4)n3)cc(F)c21 [Example C015] |  |  |  |  |  | 67.2 | 0.8 |  |  | 26.5 | 85.7 | 
OB1OCc2cc(Nc3ncc(F)c(NC4CCCCC4)n3)ccc21 [Example C017] |  |  |  |  |  | 53.5 | 11.2 | 10000 | 1640 | 1850 |  | 
OB1OCc2cc(Nc3ncc(Cl)c(NC4CCCCC4)n3)ccc21 [Example C018] |  |  |  |  |  | 56.0 |  |  |  | 118 | 108 | 
OB1OCc2cc(Nc3ncc(C(F)(F)F)c(NC4CCCC4)n3)ccc21 [Example C019] |  |  |  |  |  | 73.8 | 29.5 |  |  | 171 | 275 | 90
OB1OCc2cc(Nc3ncc(C(F)(F)F)c(NC4CCCCC4)n3)ccc21 [Example C020] |  |  |  |  |  | <19.9 | 44.1 |  |  | 397 | 37.6 | 
